# Results as given in ChEMBL document CHEMBL1201862, “PubChem BioAssay data set” (2004).
#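 The compound was tested at five concentrations on cells cultured in 96-well plates, with a 48-hour exposure period. Abbreviation: GI50, concentration required for 50% inhibition of growth.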 Activity calls are given as the source filed them. No stated cut-off is given here; in the data, active = GI50 up to about 1.1 µM and inactive = higher.
# Experiments:
# Test in all cases: inhibition of tumour cell growth, NCI panel, 48 h
# [1] = system: UACC-257
# [2] = system: A549
# [3] = system: 786-0
# [4] = system: IGROV-1
# [5] = system: HL-60
# [6] = system: SF-268
# [7] = system: OVCAR-3
# [8] = system: SK-OV-3
# [9] = system: M14
# [10] = system: SF-295
# [11] = system: Malme-3M
# [12] = system: LOX IMVI
# [13] = system: ACHN
# [14] = system: NCI-H226
# [15] = system: CCRF-CEM
SMILES,GI50 [1],GI50 [2],GI50 [3],GI50 [4],GI50 [5],GI50 [6],GI50 [7],GI50 [8],GI50 [9],GI50 [10],GI50 [11],GI50 [12],GI50 [13],GI50 [14],GI50 [15]
COC(=O)Cc1cc(=O)n2c3ccccc3n(C)c2c1C#N,> 100 µM (inactive),> 100 µM (inactive),> 100 µM (inactive),> 100 µM (inactive),> 100 µM (inactive),> 100 µM (inactive),> 100 µM (inactive),> 100 µM (inactive),> 100 µM (inactive),> 100 µM (inactive),> 100 µM (inactive),> 100 µM (inactive),> 100 µM (inactive),> 100 µM (inactive),
COC1OC(CO)C(O)C(NC(=O)N(C)N=O)C1O (stereo not drawn),,> 100 µM (inactive),> 100 µM (inactive),> 100 µM (inactive),> 100 µM (inactive),> 100 µM (inactive),> 100 µM (inactive),> 100 µM (inactive),> 100 µM (inactive),> 100 µM (inactive),> 100 µM (inactive),,> 100 µM (inactive),> 100 µM (inactive),> 100 µM (inactive)
CN(C(=O)C12C3C4C1C1C2C3C41C(=O)N(C)C(C)(C)C)C(C)(C)C (stereo not drawn),,> 50 µM (inactive),> 50 µM (inactive),> 50 µM (inactive),> 50 µM (inactive),> 50 µM (inactive),> 50 µM (inactive),> 50 µM (inactive),> 50 µM (inactive),> 50 µM (inactive),> 50 µM (inactive),,> 50 µM (inactive),,> 50 µM (inactive)
CC1(C)CC(/C=C2/OC(=O)c3ccccc32)=C(C(N)=O)C(=O)O1,> 100 µM (inactive),> 100 µM (inactive),> 100 µM (inactive),> 100 µM (inactive),,> 100 µM (inactive),> 100 µM (inactive),> 100 µM (inactive),> 100 µM (inactive),> 100 µM (inactive),> 100 µM (inactive),> 100 µM (inactive),,> 100 µM (inactive),> 100 µM (inactive)
COc1ccc(C(=O)NCCN(C)C)c2nc3ccccc3nc12,3.56 µM (inactive),4.93 µM (inactive),9.06 µM (inactive),3.14 µM (inactive),,,5.25 µM (inactive),19.5 µM (inactive),5.37 µM (inactive),6.82 µM (inactive),2.3 µM (inactive),2.01 µM (inactive),2.79 µM (inactive),3.48 µM (inactive),
COc1ccc(N2C(=O)[C@@H](N=[N+]=[N-])[C@@H]2[C@H]2COC(C)(C)O2)cc1,> 100 µM (inactive),> 100 µM (inactive),> 100 µM (inactive),> 100 µM (inactive),> 100 µM (inactive),> 100 µM (inactive),> 100 µM (inactive),> 100 µM (inactive),> 100 µM (inactive),> 100 µM (inactive),> 100 µM (inactive),,> 100 µM (inactive),> 100 µM (inactive),> 100 µM (inactive)
CN(C)CCNC(=O)c1cccc2nc3cc(Cl)ccc3nc12,2.82 µM (inactive),2.56 µM (inactive),3.79 µM (inactive),5.25 µM (inactive),3.32 µM (inactive),,2.17 µM (inactive),5.94 µM (inactive),3 µM (inactive),3.25 µM (inactive),1.85 µM (inactive),1.26 µM (inactive),1.02 µM (active),1.64 µM (inactive),
N#CC(C(=O)CCCC(=O)Nc1ccc(Cl)cc1Cl)c1ccc(Cl)cc1 (stereo not drawn),> 100 µM (inactive),> 100 µM (inactive),> 100 µM (inactive),> 100 µM (inactive),> 100 µM (inactive),> 100 µM (inactive),> 100 µM (inactive),> 100 µM (inactive),> 100 µM (inactive),> 100 µM (inactive),> 100 µM (inactive),> 100 µM (inactive),> 100 µM (inactive),> 100 µM (inactive),
CC(N)Cc1ccc(C(=O)Cl)cc1 (stereo not drawn),> 100 µM (inactive),> 100 µM (inactive),> 100 µM (inactive),> 100 µM (inactive),,> 100 µM (inactive),> 100 µM (inactive),> 100 µM (inactive),> 100 µM (inactive),> 100 µM (inactive),> 100 µM (inactive),> 100 µM (inactive),> 100 µM (inactive),,> 100 µM (inactive)
CN(C)C(=S)/N=c1\ss/c(=N\S(=O)(=O)c2ccccc2)n1C,> 100 µM (inactive),> 100 µM (inactive),> 100 µM (inactive),> 100 µM (inactive),> 100 µM (inactive),> 100 µM (inactive),,> 100 µM (inactive),> 100 µM (inactive),> 100 µM (inactive),> 100 µM (inactive),> 100 µM (inactive),> 100 µM (inactive),> 100 µM (inactive),> 100 µM (inactive)
Nc1ncnc2c1ncn2C1OC(CSCC(F)(F)F)C(O)C1O (stereo not drawn),> 100 µM (inactive),> 100 µM (inactive),> 100 µM (inactive),> 100 µM (inactive),> 100 µM (inactive),> 100 µM (inactive),> 100 µM (inactive),> 100 µM (inactive),> 100 µM (inactive),> 100 µM (inactive),> 100 µM (inactive),> 100 µM (inactive),> 100 µM (inactive),> 100 µM (inactive),
CCOC(=O)N1C(c2ccccc2)C=CC(c2ccccc2)N1C(=O)OCC (stereo not drawn),> 100 µM (inactive),> 100 µM (inactive),> 100 µM (inactive),> 100 µM (inactive),,> 100 µM (inactive),> 100 µM (inactive),,,> 100 µM (inactive),> 100 µM (inactive),> 100 µM (inactive),> 100 µM (inactive),,> 100 µM (inactive)
OCCc1cnco1,,> 100 µM (inactive),> 100 µM (inactive),> 100 µM (inactive),> 100 µM (inactive),> 100 µM (inactive),> 100 µM (inactive),> 100 µM (inactive),> 100 µM (inactive),> 100 µM (inactive),,> 100 µM (inactive),,> 100 µM (inactive),> 100 µM (inactive)
CC(C)(C)c1ccnc(/N=C2\N/C(=N\c3cc(C(C)(C)C)ccn3)c3ccccc32)c1,23 µM (inactive),26.1 µM (inactive),19.3 µM (inactive),23.1 µM (inactive),36.3 µM (inactive),16.3 µM (inactive),17.8 µM (inactive),26.5 µM (inactive),32.5 µM (inactive),23.4 µM (inactive),24.8 µM (inactive),35.9 µM (inactive),> 100 µM (inactive),> 100 µM (inactive),59.4 µM (inactive)
CN1C(=O)C2C3C=C4c5ccccc5N(c5ccccc5)C4(C2C1=O)[C@H]1C(=O)N(C)C(=O)[C@@H]31 (stereo partly drawn),> 100 µM (inactive),> 100 µM (inactive),> 100 µM (inactive),,> 100 µM (inactive),> 100 µM (inactive),> 100 µM (inactive),> 100 µM (inactive),> 100 µM (inactive),> 100 µM (inactive),> 100 µM (inactive),> 100 µM (inactive),> 100 µM (inactive),> 100 µM (inactive),> 100 µM (inactive)
